Target: T1, α4β1 integrin (Homo sapiens, UniProt P05556+P13612)
T1 construct: Ramos cells fluorescently labeled with calcein; endogenous in cells; host or cells: Ramos cells
Experiment: Inhibition of adhesion of calcein-labeled Ramos cells to CS1 (fibronectin) peptide-conjugated ovalbumin
Format: cell-based
Conditions: Table 1; for inhibition at 100 µM: Ramos, compound at a concentration of 100 μM, read-out: % A (percent inhibition of cell adhesion); for IC50: dose required to give 50% inhibition, Ramos cell adhesion to CS1-ovalbumin, 30 minutes at 37° C
Experimental: The ability of compounds of the present invention to inhibit binding is described in detail hereinafter in the Examples by a procedure in which a 26-amino acid peptide containing the CS1 sequence of fibroncctin with an N-terminal Cys was coupled to maleimide activated ovalbumin. Ovalbumin and CS1 conjugated ovalbumin were coated onto 96-well polystyrene plates at 5 μg/ml in TBS (50 mM Tris, pH 7.5; 150 mM NaCl) at 4° C. for 16 hours. The plates were washed three times with TBS and blocked with TBS containing 3% BSA at room temperature for 4 hours. Blocked plates were washed three times in binding buffer (TBS; 1 mM MgCl2; 1 mM CaCl2; 1 mM MnCl2) prior to assay. Ramos cells fluorescently labeled with calcein AMC-3099 were resuspended in binding buffer (10^7 cells/ml) and diluted 1:2 with same buffer with or without compound. The cells were added immediately to the wells (2.5×10^5 cells/well) and incubated for 30 minutes at 37° C. Following three washes with binding buffer, adherent cells were lysed and quantitated using a fluorometer.
IC50 is defined as the dose required to give 50% inhibition. The lower the IC50 value and the greater the percentage of inhibition, the more efficient the compound is at prevention of cell adhesion. A stands for inhibition in Table 1, and the percent inhibition indicates the inhibition of cell adhesion when compound is included in the assay at a concentration of 100 μM.

T1 sequence (P13612 34-1032): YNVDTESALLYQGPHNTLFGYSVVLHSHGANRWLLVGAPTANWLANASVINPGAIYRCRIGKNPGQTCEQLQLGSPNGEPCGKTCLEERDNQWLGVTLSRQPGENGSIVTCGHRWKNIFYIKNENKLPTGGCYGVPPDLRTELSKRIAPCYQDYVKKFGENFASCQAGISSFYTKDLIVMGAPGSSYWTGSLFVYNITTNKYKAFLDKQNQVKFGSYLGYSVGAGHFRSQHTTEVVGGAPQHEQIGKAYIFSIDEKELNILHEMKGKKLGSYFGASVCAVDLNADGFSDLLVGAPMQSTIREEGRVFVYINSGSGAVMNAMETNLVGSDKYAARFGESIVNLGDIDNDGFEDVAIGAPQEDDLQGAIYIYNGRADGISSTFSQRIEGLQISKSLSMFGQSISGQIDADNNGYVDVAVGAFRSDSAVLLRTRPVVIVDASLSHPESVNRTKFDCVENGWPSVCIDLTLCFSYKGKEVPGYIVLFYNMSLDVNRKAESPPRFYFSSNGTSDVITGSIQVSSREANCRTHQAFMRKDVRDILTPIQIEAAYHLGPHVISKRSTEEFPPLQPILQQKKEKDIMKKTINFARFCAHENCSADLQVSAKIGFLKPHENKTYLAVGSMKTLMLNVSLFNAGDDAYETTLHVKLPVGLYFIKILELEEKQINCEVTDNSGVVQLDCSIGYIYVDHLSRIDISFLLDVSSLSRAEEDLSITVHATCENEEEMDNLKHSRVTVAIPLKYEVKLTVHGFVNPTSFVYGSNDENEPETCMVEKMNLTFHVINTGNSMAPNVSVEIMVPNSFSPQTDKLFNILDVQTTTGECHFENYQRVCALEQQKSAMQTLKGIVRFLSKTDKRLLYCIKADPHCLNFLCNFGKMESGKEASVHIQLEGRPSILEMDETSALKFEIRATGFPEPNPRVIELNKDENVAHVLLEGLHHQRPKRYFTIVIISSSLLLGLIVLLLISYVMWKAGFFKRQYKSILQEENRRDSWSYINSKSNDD
T1 sequence (P05556 21-798): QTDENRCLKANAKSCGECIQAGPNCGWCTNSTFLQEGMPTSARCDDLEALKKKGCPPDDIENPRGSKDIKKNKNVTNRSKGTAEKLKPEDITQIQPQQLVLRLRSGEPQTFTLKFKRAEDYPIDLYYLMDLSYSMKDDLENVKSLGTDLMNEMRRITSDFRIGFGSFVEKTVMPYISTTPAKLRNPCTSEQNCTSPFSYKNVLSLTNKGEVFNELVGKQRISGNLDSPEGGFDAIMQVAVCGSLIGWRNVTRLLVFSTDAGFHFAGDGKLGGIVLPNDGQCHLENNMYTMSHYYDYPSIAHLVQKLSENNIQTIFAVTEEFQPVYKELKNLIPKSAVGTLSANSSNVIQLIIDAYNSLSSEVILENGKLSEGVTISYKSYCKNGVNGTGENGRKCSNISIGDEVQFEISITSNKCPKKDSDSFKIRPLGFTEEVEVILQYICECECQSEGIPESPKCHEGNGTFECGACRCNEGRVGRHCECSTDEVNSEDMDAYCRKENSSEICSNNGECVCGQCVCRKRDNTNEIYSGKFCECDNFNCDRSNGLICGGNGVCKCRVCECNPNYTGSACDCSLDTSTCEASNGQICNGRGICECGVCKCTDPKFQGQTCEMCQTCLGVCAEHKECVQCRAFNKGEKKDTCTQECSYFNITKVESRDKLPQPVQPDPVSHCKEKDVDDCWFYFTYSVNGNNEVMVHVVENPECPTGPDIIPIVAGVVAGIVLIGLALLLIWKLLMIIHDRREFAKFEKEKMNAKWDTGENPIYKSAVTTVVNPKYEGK

Compound	inhibition at 100 µM	IC50
COc1ccc(CNC(=O)[C@@H](CC(C)C)NC(=O)NC(CC(=O)O)c2ccc3c(c2)OCO3)cc1 (stereo partly drawn) [3-(1,3-benzodioxol-5-yl)-3-({[((1R)-1-{[(4-methoxybenzyl)amino]carbonyl}-3-methylbutyl)amino]carbonyl}amino)propanoic acid]	66%	45 µM
CC(C)[C@@H](CSCc1ccccc1)NC(=O)NC(CC(=O)O)c1ccc2c(c1)OCO2 (stereo partly drawn) [3-(1,3-benzodioxol-5-yl)-3-{[({(1S)-1-[(benzylsulfanyl)methyl]-2-methylpropyl}amino)carbonyl]amino}propanoic acid]	100%	10 µM
CC(C)[C@@H](CS(=O)(=O)Cc1ccccc1)NC(=O)NC(CC(=O)O)c1ccc2c(c1)OCO2 (stereo partly drawn) [3-(1,3-benzodioxol-5-yl)-3-{[({(1S)-1-[(benzylsulfonyl)methyl]-2-methylpropyl}amino)carbonyl]amino}propanoic acid]	92%	35 µM
CSCC[C@@H](CSc1ccccc1)NC(=O)NCCC(=O)O [3-{[({(1S)-3-(methylsulfanyl)-1-[(phenylsulfanyl)methyl]propyl}amino)carbonyl]amino}propanoic acid]	96%	25 µM
O=C(O)C[C@H](NC(=O)N[C@@H](CCCCNC(=O)OCc1ccccc1)C(=O)NCc1cccs1)C(=O)O [(2S)-2-({[((1S)-5-{[(benzyloxy)carbonyl]amino}-1-{[(2-thienylmethyl)amino]carbonyl}pentyl)amino]carbonyl}amino)butanedioic acid]	89%	45 µM
CC(C)[C@@H](CSc1ccccc1)NC(=O)N[C@H](CC(=O)O)c1ccc2c(c1)OCO2 [(3R)-3-(1,3-benzodioxol-5-yl)-3-{[({(1S)-2-methyl-1-[(phenylsulfanyl)methyl]propyl}amino)carbonyl]amino}propanoic acid]	83%	35 µM
O=C(O)C[C@H](NC(=O)N[C@H](CSc1ccccc1)CS(=O)(=O)Cc1ccccc1)c1ccc2c(c1)OCO2 [(3S)-3-(1,3-benzodioxol-5-yl)-3-(((((1R)-2-(benzylsulfonyl)-1-((phenylsulfanyl)methyl)ethyl)amino)carbonyl)amino)propanoic acid]	100%	1 µM
CC(C)[C@@H](CSc1ccccc1)NC(=O)N[C@@H](CC(=O)O)c1ccc2c(c1)OCO2 [(3S)-3-(1,3-benzodioxol-5-yl)-3-(((((1S)-2-methyl-1-((phenylsulfanyl)methyl)propyl)amino)carbonyl)amino)propanoic acid]	100%	2.5 µM
CSCC[C@@H](CSc1ccccc1)NC(=O)N[C@@H](CC(=O)O)c1ccc2c(c1)OCO2 [(3S)-3-(1,3-benzodioxol-5-yl)-3-(((((1S)-3-(methylsulfanyl)-1-((phenylsulfanyl)methyl)propyl)amino)carbonyl)amino)propanoic acid]	100%	0.3 µM
CC(C)[C@@H](CSCCCc1ccccc1)NC(=O)N[C@@H](CC(=O)O)c1ccc2c(c1)OCO2 [(3S)-3-(1,3-benzodioxol-5-yl)-3-({[((1S)-2-methyl-1-{[(3-phenylpropyl)sulfanyl]methyl}propyl)amino]carbonyl}amino)propanoic acid]	99%	20 µM
O=C(O)C[C@H](NC(=O)NCCSc1ccccc1)c1ccc2c(c1)OCO2 [(3S)-3-(1,3-benzodioxol-5-yl)-3-[({[2-(phenylsulfanyl)ethyl]amino}carbonyl)amino]propanoic acid]	100%	6 µM
CCCSC[C@H](NC(=O)N[C@@H](CC(=O)O)c1ccc2c(c1)OCO2)c1ccccc1 [(3S)-3-(1,3-benzodioxol-5-yl)-3-[({[(1R)-1-phenyl-2-(propylthio)ethyl]amino}carbonyl)amino]propanoic acid]	100%	25 µM
CC(C)(C)OC(=O)C[C@H](NC(=O)N[C@@H](CC(=O)O)c1ccc2c(c1)OCO2)c1ccc2c(c1)OCO2 [(3S)-3-(1,3-benzodioxol-5-yl)-3-[({[(1S)-1-(1,3-benzodioxol-5-yl)-3-(tert-butoxy)-3-oxopropyl]amino}carbonyl)amino]propanoic acid]	100%	4 µM
CSCC[C@@H](CSc1cccc(NS(C)(=O)=O)c1)NC(=O)N[C@@H](CC(=O)O)c1ccc2c(c1)OCO2 [(3S)-3-(1,3-benzodioxol-5-yl)-3-[({[(1S)-1-[({3-[(methylsulfonyl)amino]phenyl}thio)methyl]-3-(methylthio)propyl]amino}carbonyl)amino]propanoic acid]	100%	0.4 µM
CSCC[C@@H](CSc1ccc(NS(=O)(=O)Cc2ccccc2)cc1)NC(=O)N[C@@H](CC(=O)O)c1ccc2c(c1)OCO2 [(3S)-3-(1,3-benzodioxol-5-yl)-3-[({[(1S)-1-[({4-[(benzylsulfonyl)amino]phenyl}sulfanyl)methyl]-3-(methylsulfanyl)propyl]amino}carbonyl)amino]propanoic acid]	100%	0.3 µM
CSCC[C@@H](CSc1cccc(C)c1)NC(=O)N[C@@H](CC(=O)O)c1ccc2c(c1)OCO2 [(3S)-3-(1,3-benzodioxol-5-yl)-3-[({[(1S)-1-{[(3-methylphenyl)sulfanyl]methyl}-3-(methylsulfanyl)propyl]amino}carbonyl)amino]propanoic acid]	100%	0.3 µM
CSCC[C@@H](CSc1ccc(Cl)cc1)NC(=O)N[C@@H](CC(=O)O)c1ccc2c(c1)OCO2 [(3S)-3-(1,3-benzodioxol-5-yl)-3-[({[(1S)-1-{[(4-chlorophenyl)sulfanyl]methyl}-3-(methylsulfanyl)propyl]amino}carbonyl)amino]propanoic acid]	100%	3 µM
COc1ccc(SC[C@H](CCSC)NC(=O)N[C@@H](CC(=O)O)c2ccc3c(c2)OCO3)cc1 [(3S)-3-(1,3-benzodioxol-5-yl)-3-[({[(1S)-1-{[(4-methoxyphenyl)sulfanyl]methyl}-3-(methylsulfanyl)propyl]amino}carbonyl)amino]propanoic acid]	100%	7 µM

More lines, in order of falling IC50, values ahead:

inhibition at 100 µM	IC50	Compound
83%	40 µM	CC(C)[C@H](CSCc1ccccc1)NC(=O)NC(CC(=O)O)c1ccc2c(c1)OCO2 (stereo partly drawn) [3-(1,3-benzodioxol-5-yl)-3-{[({(1R)-1-[(benzylsulfanyl)methyl]-2-methylpropyl}amino)carbonyl]amino}propanoic acid]
99%	5 µM	CC(C)[C@@H](CSc1ccccc1)NC(=O)NC(CC(=O)O)c1ccc2c(c1)OCO2 (stereo partly drawn) [3-(1,3-benzodioxol-5-yl)-3-{[({(1S)-2-methyl-1-[(phenylsulfanyl)methyl]propyl}amino)carbonyl]amino}propanoic acid]
100%	3 µM	C[C@@H](CSc1ccccc1)NC(=O)N[C@@H](CC(=O)O)c1ccc2c(c1)OCO2 [(3S)-3-(1,3-benzodioxol-5-yl)-3-[({[(1S)-1-methyl-2-(phenylsulfanyl)ethyl]amino}carbonyl)amino]propanoic acid]
100%	2 µM	CCCSC[C@@H](Cc1ccccc1)NC(=O)N[C@@H](CC(=O)O)c1ccc2c(c1)OCO2 [(3S)-3-(1,3-benzodioxol-5-yl)-3-[({[(1R)-1-benzyl-2-(propylthio)ethyl]amino}carbonyl)amino]propanoic acid]
93%	2 µM	CSCC[C@@H](CSc1ccc(NCc2ccccc2C)cc1)NC(=O)N[C@@H](CC(=O)O)c1ccc2c(c1)OCO2 [(3S)-3-(1,3-benzodioxol-5-yl)-3-[({[(1S)-1-[({4-[(2-methylbenzyl)amino]phenyl}thio)methyl]-3-(methylthio)propyl]amino}carbonyl)amino]propanoic acid]
100%	0.5 µM	COc1ccc(CNC(=O)[C@H](CC(C)C)NC(=O)NC(CC(=O)O)c2ccc3c(c2)OCO3)cc1 (stereo partly drawn) [3-(1,3-benzodioxol-5-yl)-3-({[((1S)-1-{[(4-methoxybenzyl)amino]carbonyl}-3-methylbutyl)amino]carbonyl}amino)propanoic acid]
100%	0.3 µM	CSCC[C@@H](CSc1ccccc1C)NC(=O)N[C@@H](CC(=O)O)c1ccc2c(c1)OCO2 [(3S)-3-(1,3-benzodioxol-5-yl)-3-[({[(1S)-1-{[(2-methylphenyl)sulfanyl]methyl}-3-(methylsulfanyl)propyl]amino}carbonyl)amino]propanoic acid]
100%	0.02 µM	Cc1ccccc1NC(=O)Nc1ccc(CNC(=O)[C@H](CC(C)C)NC(=O)NC(CC(=O)O)c2ccc3c(c2)OCO3)cc1 (stereo partly drawn) [3-(1,3-benzodioxol-5-yl)-3-{[({(1S)-3-methyl-1-[({4-[(2-toluidinocarbonyl)amino]benzyl}amino)carbonyl]butyl}amino)carbonyl]amino}propanoic acid]

— patent publication US6262084A, “Compounds that inhibit the binding of integrins to their receptors” (Texas Biotechnology Corporation, priority 1999, dated 2001)
